From article PMC9486951, “Tetramate Derivatives by Chemoselective Dieckmann Ring Closure of threo-Phenylserines and Their Antibacterial Activity” (The Journal of Organic Chemistry, 2022)
≈ marks a conversion by molar mass, not a printed value. Like-named read-outs stand apart in the source and are kept apart here.

How the values were obtained:
MRSA [1] = assay: Broth dilution MIC against MRSA with added metal cations; assay type: cell-based; conditions: Staphylococcus aureus, addition of Fe, Ca, Mg and Zn at concentration as found in blood
Method: (§1) As tetramic acids are well-known metal chelators,[1],[20] of interest was to investigate whether this loss of activity was due to metal chelation or plasma protein binding (PPB), specifically with human serum albumin (HSA).[17],[18] To answer this question, bicyclic tetramate 12a was tested against MRSA using a broth dilution assay, under standard conditions and with the addition of similar metal cations (Fe, Ca, Mg, and Zn) with concentration as that found in blood, respectively. […] Bicyclic tetramate 12a was also tested against MRSA using a broth dilution assay, under standard conditions but in the presence of one-third the serum albumin concentration as that found in human blood. […] A review has shown that PPB strongly correlates with increased hydrophobicity, and this might point to a problem with the tetramate class, which clearly depends upon hydrophobicity for their antibacterial activity, as noted above.[21]

[2] = test system: methicillin-resistant Staphylococcus aureus (MRSA); assay: MIC determination by broth dilution assay against MRSA; assay type: cell-based
Method: (§2) With access to these derivatives routinely available, an assessment of their antibacterial activity was made by measuring minimum inhibitory concentration (MIC) values (Table S6) against two example organisms, methicillin-resistant Staphylococcus aureus (MRSA) and E. coli. […] By contrast, a more polar substituent at the C7-position (pyran 12t) compromised the antibacterial activity (125 μg/mL). […] Compound 13b had the same activity as 12g at 1.00 μg/mL. Overall, increasing lipophilicity corresponded to higher potency against MRSA. […]
(§3) Screening of compounds were performed by Oxford Antibiotic Group, Austria. For MIC determination by broth dilution assay, the samples were tested in a primary 96 well plates screening assay, in duplicate. The compounds were diluted in Mueller Hinton Broth (MHB) for bacterial screening to a stock solution of 1000 µg/mL, serial diluted and overlaid with a microbe solution in a concentration of 10^4 CFU/ml. […]

MRSA [3] = assay: Broth dilution MIC against MRSA in the presence of serum albumin; assay type: cell-based; conditions: Staphylococcus aureus, one-third the serum albumin concentration found in human blood
Method: as §1

MDCK cell line = assay: Cytotoxicity assay (Alamar blue), MDCK; assay type: cell-based; conditions: read-out: cell lines EC50, MDCK
Method: (§4) The selectivity of these compounds for activity against prokaryotic cells over mammalian cells was analyzed by considering their cytotoxicity against Hela, heK-293, CaCo, and MDCK […] cell lines, allowing estimation of the therapeutic ratio [EC50Hela cell line/MIC(S. aureus)] (Table 3). […]
(§5) Screening of compounds were performed by Oxford Antibiotic Group, Austria. […]
(§6) For cytotoxicity testing, the synthesized compounds were tested against four different cell lines: HeLa, HEK 293, MDCK and CaCo. The cells were seeded in a 96 well plate and incubated until a confluence of 80% was achieved (under physiological conditions - 37°C, 5% CO2 and 95% humidity). The samples were tested by serial dilution in triplicates with starting concentration of 250 µg/mL. After 24 and 48 hours the survival of cells was evaluated by microscope and measured with Alamar blue. IC50 values were obtained from the calibration curves. […]

Hela cell line = assay: Cytotoxicity assay (Alamar blue), Hela; assay type: cell-based, human; conditions: for EC50: Homo sapiens, HeLa, read-out: cell lines EC50, Hela
Method: as §4
as §3, with “CFU/ml. The plates were incubated for” for “CFU/ml.”
as §6

CaCo cell line = assay: Cytotoxicity assay (Alamar blue), CaCo; assay type: cell-based; conditions: Homo sapiens; read-out: cell lines EC50, CaCo
Method: as §4, §5, §6

heK-293 cell line = assay: Cytotoxicity assay (Alamar blue), heK-293; assay type: cell-based; conditions: Homo sapiens, HEK293; read-out: cell lines EC50, heK-293
Method: as §4, §5, §6

E. coli = assay: MIC determination by broth dilution assay against E. coli; assay type: cell-based
Method: as §2, §3

[4] = Staphylococcus aureus, MRSA, Table 3, read-out: MIC(S. aureus)
[5] = Staphylococcus aureus, MRSA, Table S5, against S. aureus, read-out: MIC
[6] = Staphylococcus aureus, MRSA, broth dilution, read-out: MIC against MRSA
[7] = Staphylococcus aureus, MRSA, Table S6, read-out: MIC

Question: Which results are given for `CC(C)(C)[C@@H]1O[C@H](c2ccccc2)[C@H]2C(O)=C(C(=O)NC34CC5CC(CC(C5)C3)C4)C(=O)N21` (mixture of isomers) [12a]?
Answer: MIC (MRSA [1]): 0.24 µg/mL; MIC [2, 4]: 0.3 µg/mL; MIC [2, 5]: 0.25 µg/mL; MIC ([2]; Staphylococcus aureus, MRSA, broth dilution assay, standard conditions (control of metal cation experiment), read-out: MIC against MRSA, standard conditions): 0.49 µg/mL; MIC [2, 6]: 0.25 µg/mL; MIC ([2]; Table S6): 0.25 µg/mL; MIC (MRSA [3]): 7.81 µg/mL; EC50 (MDCK cell line): 7.8 µg/mL; therapeutic ratio / selectivity for bacteria over the Hela cell line (Hela cell line; EC50 Hela cell line/MIC(S. aureus)): 26 fold; EC50 (Hela cell line): 7.8 µg/mL; EC50 (CaCo cell line): 15.6 µg/mL; EC50 (heK-293 cell line): 31.3 µg/mL

Question: What does the source list for `Cc1ccc([C@H]2O[C@@H](C(C)(C)C)N3C(=O)C(C(=O)NC45CC6CC(CC(C6)C4)C5)=C(O)[C@H]23)cc1` (mixture of isomers) [13a]?
Answer: MIC [2, 7]: 3.9 µg/mL; MIC [2, 6]: 3.9 µg/mL; MIC ([2]; Table S5, against S. aureus): 3.9 µg/mL

Question: Which MIC [2, 7] does the source give for `CC(C)(C)[C@@H]1O[C@H](c2ccc(F)cc2)[C@H]2C(O)=C(C(=O)NC34CC5CC(CC(C5)C3)C4)C(=O)N21` (mixture of isomers) [compound 20] here?
Answer: 1 µg/mL

Question: And the MIC [2, 6]?
Answer: 1 µg/mL

Question: And the MIC ([2]; Table S5, against S. aureus)?
Answer: 1.0 µg/mL

Question: For `CC(C)(C)[C@@H]1O[C@H](c2ccc(Cl)cc2)[C@H]2C(O)=C(C(=O)NC34CC5CC(CC(C5)C3)C4)C(=O)N21` (mixture of isomers) [compound 21], which MIC [2, 7] is on record?
Answer: 7.8 µg/mL

Question: And the MIC [2, 6]?
Answer: 7.8 µg/mL

Question: And the MIC ([2]; Table S5, against S. aureus)?
Answer: 7.8 µg/mL

Question: Which MIC [2, 7] does the source give for `CC(C)(C)[C@@H]1O[C@H](c2ccc(Br)cc2)[C@H]2C(O)=C(C(=O)NC34CC5CC(CC(C5)C3)C4)C(=O)N21` (mixture of isomers) [compound 22] here?
Answer: 0.49 µg/mL

Question: And the MIC [2, 6]?
Answer: 0.49 µg/mL

Question: And the MIC ([2]; Table S5, against S. aureus)?
Answer: 0.49 µg/mL

Question: With `CCOC(=O)C1=C(O)[C@@H]2[C@@H](c3ccccc3)O[C@@H](C(C)(C)C)N2C1=O` (racemic) [10a] as the compound, how does the “antibacterial activity against MRSA (in words)” value [2] read?
Answer: no activity

Question: What about the “antibacterial activity against E. coli (in words)” value (E. coli) of the same compound?
Answer: no activity

Question: What does the source list for `CCOC(=O)C1=C(O)[C@@H]2[C@@H](c3ccc(F)cc3)O[C@@H](C(C)(C)C)N2C1=O` (racemic) [10c]?
Answer: MIC [2, 4]: 31.3 µg/mL (≈ 86.1 µM); MIC [2, 7]: 31.3 µg/mL (≈ 86.1 µM); EC50 (MDCK cell line): 62.5 µg/mL (≈ 172 µM); EC50 (Hela cell line): 31.3 µg/mL (≈ 86.1 µM); EC50 (CaCo cell line): 62.5 µg/mL (≈ 172 µM); EC50 (heK-293 cell line): 62.5 µg/mL (≈ 172 µM)

Question: How did the MIC [2, 4] turn out when `CCOC(=O)C1=C(O)[C@@H]2[C@@H](c3ccc(Cl)cc3)O[C@@H](C(C)(C)C)N2C1=O` (racemic) [10d] was run?
Answer: 15.6 µg/mL (≈ 41.1 µM)

Question: And the MIC [2, 7]?
Answer: 15.6 µg/mL (≈ 41.1 µM)

Question: What about the EC50 (MDCK cell line) of the same compound?
Answer: 62.5 µg/mL (≈ 165 µM)

Question: And the EC50 (Hela cell line)?
Answer: 31.3 µg/mL (≈ 82.4 µM)

Question: What about the EC50 (CaCo cell line) of the same compound?
Answer: 31.3 µg/mL (≈ 82.4 µM)

Question: And the EC50 (heK-293 cell line)?
Answer: 31.3 µg/mL (≈ 82.4 µM)

Question: How did the MIC [2, 4] turn out when `CCOC(=O)C1=C(O)[C@@H]2[C@@H](c3ccc(Br)cc3)O[C@@H](C(C)(C)C)N2C1=O` (racemic) [10e] was run?
Answer: 15.6 µg/mL (≈ 36.8 µM)

Question: What about the MIC [2, 7] of the same compound?
Answer: 15.6 µg/mL (≈ 36.8 µM)

Question: What about the EC50 (MDCK cell line) of the same compound?
Answer: 62.5 µg/mL (≈ 147 µM)

Question: What about the EC50 (Hela cell line) of the same compound?
Answer: 31.3 µg/mL (≈ 73.8 µM)

Question: What about the EC50 (CaCo cell line) of the same compound?
Answer: 62.5 µg/mL (≈ 147 µM)

Question: What about the EC50 (heK-293 cell line) of the same compound?
Answer: 62.5 µg/mL (≈ 147 µM)

Question: `CC(C)(C)[C@@H]1O[C@H](c2ccccc2)[C@H]2C(O)=C(C(=O)Nc3ccccc3)C(=O)N21` (racemic) [12b] was tested. Which MIC [2, 5] did it give?
Answer: 7.8 µg/mL (≈ 19.9 µM)

Question: And the MIC [2, 6]?
Answer: 7.8 µg/mL (≈ 19.9 µM)

Question: What about the MIC ([2]; Table S6) of the same compound?
Answer: 7.8 µg/mL (≈ 19.9 µM)

Question: `CC(C)(C)[C@@H]1O[C@H](c2ccccc2)[C@H]2C(O)=C(C(=O)Nc3ccc(Br)cc3)C(=O)N21` (racemic) [12c] was tested. Which MIC [2, 5] did it give?
Answer: 3.9 µg/mL (≈ 8.27 µM)

Question: What about the MIC [2, 6] of the same compound?
Answer: 3.9 µg/mL (≈ 8.27 µM)

Question: What about the MIC ([2]; Table S6) of the same compound?
Answer: 3.9 µg/mL (≈ 8.27 µM)

Question: Which “antibacterial activity against MRSA (in words)” value [2] does the source give for `CC(C)(C)[C@@H]1O[C@H](c2ccccc2)[C@H]2C(O)=C(C(=O)Nc3ccc([N+](=O)[O-])cc3)C(=O)N21` (racemic) [12d] here?
Answer: good bioactivity

Question: And the MIC [2, 5]?
Answer: 3.9 µg/mL (≈ 8.92 µM)

Question: What about the MIC [2, 6] of the same compound?
Answer: 3.9 µg/mL (≈ 8.92 µM)

Question: And the MIC ([2]; Table S6)?
Answer: 3.9 µg/mL (≈ 8.92 µM)

Question: Which results are given for `CC(C)(C)[C@@H]1O[C@H](c2ccccc2)[C@H]2C(O)=C(C(=O)Nc3ccc(C(F)(F)F)cc3)C(=O)N21` (racemic) [12e]?
Answer: MIC [2, 5]: 1 µg/mL (≈ 2.17 µM); MIC [2, 6]: 1 µg/mL (≈ 2.17 µM); MIC ([2]; Table S6): 1.0 µg/mL (≈ 2.17 µM)

Question: What does the source list for `Cc1cc(Cl)ccc1NC(=O)C1=C(O)[C@@H]2[C@@H](c3ccccc3)O[C@@H](C(C)(C)C)N2C1=O` (racemic) [12g]?
Answer: MIC [2, 5]: 1 µg/mL (≈ 2.27 µM); MIC [2, 6]: 1 µg/mL (≈ 2.27 µM); MIC ([2]; Table S6): 1.0 µg/mL (≈ 2.27 µM)

Question: `Cc1ccc(NC(=O)C2=C(O)[C@@H]3[C@@H](c4ccccc4)O[C@@H](C(C)(C)C)N3C2=O)c(Cl)c1` (racemic) [12h] was tested. Which MIC [2, 5] did it give?
Answer: 3.9 µg/mL (≈ 8.85 µM)

Question: And the MIC ([2]; Table S6)?
Answer: 3.9 µg/mL (≈ 8.85 µM)
